Laboratory results: US7807672B2, “Compounds that are ERK inhibitors” (Schering Corporation, priority 2006, dated 2010)

Biological target: fully phosphorylated, active Mouse ERK2 protein (Mus musculus, UniProt P63085)
Assay: Active ERK2 assay (AERK2), IMAP format
Type: biochemical
Conditions: activated ERK2, IMAP fluorescence polarization, 30 μM ATP
Description: 14 μl of kinase buffer (10 mM Tris.HCl pH 7.2, 10 mM MgCl2, 0.01% Tween-20, 1 mM DTT) containing 0.4 ng unphosphorylated Mouse ERK2 protein was added to each well of a black 384-well assay plate. […] DMSO concentration during initial incubation is 6.7%. […] DMSO concentration during ERK activation was 4%. After one hour, reactions were terminated by addition of 60 μl IMAP detections beads in binding buffer (Molecular Devices). Binding was allowed to equilibrate for 30 minutes before reading the plate on an LJL Analyst Fluorescence Polarization plate reader.
Activated ERK2 activity was also determined in the IMAP assay format using the procedure outlined above. […] Reactions proceeded for 30 minutes before termination by addition of 60 μl IMAP detection beads in binding buffer. Plates were read as above after 30 minute binding equilibration.

fully phosphorylated, active Mouse ERK2 protein, sequence (P63085 whole entry): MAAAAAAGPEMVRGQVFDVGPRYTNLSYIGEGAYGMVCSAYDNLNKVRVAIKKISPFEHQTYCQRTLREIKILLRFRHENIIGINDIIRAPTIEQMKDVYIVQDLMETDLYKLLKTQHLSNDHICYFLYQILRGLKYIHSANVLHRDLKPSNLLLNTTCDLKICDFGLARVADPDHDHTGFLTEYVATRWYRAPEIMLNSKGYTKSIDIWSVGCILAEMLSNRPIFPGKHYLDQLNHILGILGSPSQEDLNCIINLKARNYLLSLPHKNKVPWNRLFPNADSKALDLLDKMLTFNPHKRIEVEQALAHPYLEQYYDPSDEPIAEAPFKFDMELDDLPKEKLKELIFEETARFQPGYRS

An IC50 of 0.076 µM was found for `O=C(Nc1ccc(O)c(C(F)(F)F)c1)[C@@H]1CCN(CC(=O)N2CCN(c3ccc(-c4ncccn4)cc3)CC2)C1` [Example 1] in this work.
An IC50 of 0.034 µM was found for `O=C(Nc1ccc(O)c(Cl)c1)[C@@H]1CCN(CC(=O)N2C[C@@H]3C[C@H]2CN3c2ccc(-c3ncccn3)cc2)C1` [Example 19] in this work.
An IC50 of 0.044 µM was found for `CC(=O)c1cnc(-c2ccc(N3CCN(C(=O)CN4CC[C@@H](C(=O)Nc5ccc(O)c(Cl)c5)C4)CC3)cc2)nc1` [Example 20] in this work.
An IC50 of 0.057 µM was found for `C/C(=N\O)c1cnc(-c2ccc(N3CCN(C(=O)CN4CC[C@@H](C(=O)Nc5ccc(O)c(Cl)c5)C4)CC3)cc2)nc1` [Example 23] in this work.
An IC50 of 0.018 µM was found for `CO/N=C(\C)c1cnc(-c2ccc(N3CCN(C(=O)CN4CC[C@@H](C(=O)Nc5ccc(O)c(Cl)c5)C4)CC3)cc2)nc1` [Example 25] in this work.
An IC50 of 0.039 µM was found for `O=C(Nc1ccc(O)c(C2CC2)c1)[C@@H]1CCN(CC(=O)N2CCN(c3ccc(-c4ncccn4)cc3)CC2)C1` [Example 119] in this work.
An IC50 of 0.038 µM was found for `CC(C)c1cc(NC(=O)[C@@H]2CCN(CC(=O)N3C[C@@H]4C[C@H]3CN4c3ccc(-c4ncccn4)cc3)C2)ccc1O` [Example 196] in this work.
An IC50 of 0.04 µM was found for `CC(C)c1cc(NC(=O)[C@@H]2CCN(CC(=O)N3C[C@@H]4C[C@H]3CN4c3ccc(-c4cnccn4)cc3)C2)ccc1O` [Example 197] in this work.
An IC50 of 0.053 µM was found for `O=C(Nc1ccc(O)c(-c2ccc(F)cc2)c1)[C@@H]1CCN(CC(=O)N2CCN(c3ccc(-c4ncccn4)cc3)CC2)C1` [Example 212] in this work.
